Test results from ChEMBL document CHEMBL1151515, “Attempts to introduce chemotherapeutic nucleotides into cells: studies on the anti-HIV agent FDT” (Bioorg Med Chem Lett, 1991).
pEC50: −log10 of the molar value.

How the values were obtained:
[1] = Tested for the cytotoxicity against HIV-1 in human T-cell line; format: cell-based; conditions: read-out: TD50 (the source's name)
T-cell line = test: Tested for its effective dose required to inhibit the replication of HIV-1 in human T-cell line; format: functional; conditions: read-out: ED50 (the source's name)

COC(=O)C(NP(=O)(OCC1OC(n2cc(C)c(=O)[nH]c2=O)CC1F)OCC(Cl)(Cl)Cl)C(C)C (stereo not given)
CC50 [1]: > 100 µM | pEC50 (T-cell line): 6.52

COC(=O)C(C)NP(=O)(OCC1OC(n2cc(C)c(=O)[nH]c2=O)CC1F)OCC(Cl)(Cl)Cl (stereo not given)
CC50 [1]: > 100 µM | pEC50 (T-cell line): 6.52

COC(=O)C(Cc1ccccc1)NP(=O)(NC(Cc1ccccc1)C(=O)OC)OCC1OC(n2cc(C)c(=O)[nH]c2=O)CC1F (stereo not given)
CC50 [1]: > 100 µM | pEC50 (T-cell line): 5.30

Cc1cn(C2CC(F)C(COP(=O)(OCC(Cl)(Cl)Cl)OCC(Cl)(Cl)Cl)O2)c(=O)[nH]c1=O (stereo not given)
CC50 [1]: 100 µM | pEC50 (T-cell line): 8.00

Cc1cn([C@H]2C[C@H](F)[C@@H](CO)O2)c(=O)[nH]c1=O [ALOVUDINE]
CC50 [1]: 100 µM | pEC50 (T-cell line): 8.30
